From ChEMBL document CHEMBL1154562, “Malevamides A-C, new depsipeptides from the marine cyanobacterium Symploca laete-viridis” (J Nat Prod, 2000)
Activity calls are given as the source filed them.

Experiments:
Assay type in all cases: functional, cell-based
[1] = tested on: P388; assay: Cytotoxicity against mouse P388 cells at 2 ug/mL
[2] = tested on: A549; assay: Cytotoxicity against human A549 cells at 2 ug/mL
[3] = tested on: HT-29; assay: Cytotoxicity against human HT29 cells at 2 ug/mL

Measured: Activity

CCCC1NC(=O)[C@H](Cc2ccccc2)N(C)C(=O)[C@@H]2CCCN2C(=O)C(C(C)C)N(C)C(=O)[C@@H]2CCCN2C(=O)[C@H]([C@@H](C)CC)NC(=O)C(C(C)C)N(C)C(=O)[C@@H]2CCCN2C(=O)C(C(C)C)N(C)C(=O)C(C(C)C)N(C)C(=O)[C@H](C(C)C)NC(=O)[C@H](C)N(C)C(=O)[C@@H](C(C)C)OC(=O)C1C (some centres undefined)
inactive: all assays above

C#CCCCC1NC(=O)[C@H]([C@@H](C)CC)N(C)C(=O)[C@@H]2CCCN2C(=O)[C@@H]2CCCN2C(=O)[C@H](CC(C)C)NC(=O)[C@H](C(C)C)N(C)C(=O)[C@H](C)NC(=O)[C@@H](C)N(C)C(=O)[C@H](Cc2ccccc2)N(C)C(=O)[C@H](COC)N(C)C(=O)[C@H](C(C)C)N(C)C(=O)[C@@H]2CCCN2C(=O)[C@H](C)NC(=O)[C@H](C(C)C)OC(=O)C1C (some centres undefined)
inactive: all assays above

CCCCC(C)C(=O)N1CCC[C@H]1C(=O)N(C)C(Cc1ccccc1)C(=O)NCC(=O)N(C)[C@@H](C(=O)N[C@H](C(=O)NCC(=O)N(C)C(Cc1ccccc1)C(=O)N1CCC[C@@H]1C(=O)OC)[C@@H](C)CC)C(C)C (some centres undefined)
inactive: all assays above
